Results from the NIST ThermoML archive (doi:10.1021/je1013476).

How the values were obtained:
[1] = excess molar enthalpy (molar enthalpy of mixing); xn = mol fraction of the nth substance listed; settings: 303.15 K, 101 kPa, Liquid, Calvet calorimetry
[2] = xn = mol fraction of the nth substance listed; settings: 101 kPa, Liquid; for viscosity: Capillary tube (Ostwald / Ubbelohde) method; for mass density: Vibrating tube method

CCOC(=O)OCC [diethyl carbonate] + CCCO
[1]
Settings | excess molar enthalpy [kJ/mol]
x1 = 0.05945 | 0.433
x1 = 0.1227 | 0.82
x1 = 0.1956 | 1.17
x1 = 0.2498 | 1.37
x1 = 0.2677 | 1.44
x1 = 0.3018 | 1.55
x1 = 0.3762 | 1.76
x1 = 0.4569 | 1.84
x1 = 0.4906 | 1.87
x1 = 0.5642 | 1.89
x1 = 0.6182 | 1.85
x1 = 0.6932 | 1.74
x1 = 0.7453 | 1.59
x1 = 0.824 | 1.31
x1 = 0.872 | 1.04
x1 = 0.9168 | 0.727

[2]
Settings | mass density [kg/m3] | viscosity [mPa·s]
288.15 K, x1 = 0.05124 | 821.17 | 2.135
288.15 K, x1 = 0.07262 | 826.61 | 2.007
288.15 K, x1 = 0.1063 | 834.89 | 1.833
288.15 K, x1 = 0.1511 | 845.43 | 1.638
288.15 K, x1 = 0.2122 | 858.98 | 1.459
288.15 K, x1 = 0.2638 | 869.76 | 1.33
288.15 K, x1 = 0.31 | 878.92 | 1.248
288.15 K, x1 = 0.4016 | 895.92 | 1.115
288.15 K, x1 = 0.5147 | 915.01 | 1
288.15 K, x1 = 0.5916 | 926.96 | 0.947
288.15 K, x1 = 0.5994 | 928.13 | 0.937
288.15 K, x1 = 0.6906 | 941.32 | 0.905
288.15 K, x1 = 0.7887 | 954.53 | 0.871
288.15 K, x1 = 0.8694 | 964.81 | 0.859
288.15 K, x1 = 0.9428 | 973.71 | 0.865
293.15 K, x1 = 0.04957 | 816.57 | 1.906
293.15 K, x1 = 0.1001 | 829.1 | 1.657
293.15 K, x1 = 0.2101 | 853.96 | 1.315
293.15 K, x1 = 0.3074 | 873.57 | 1.132
293.15 K, x1 = 0.4038 | 891.34 | 1.01
293.15 K, x1 = 0.5097 | 909.09 | 0.92
293.15 K, x1 = 0.6002 | 923.04 | 0.868
293.15 K, x1 = 0.6963 | 936.76 | 0.829
293.15 K, x1 = 0.8059 | 951.25 | 0.804
293.15 K, x1 = 0.8817 | 960.76 | 0.796
293.15 K, x1 = 0.9433 | 968.14 | 0.796
303.15 K, x1 = 0.05148 | 808.69 | 1.495
303.15 K, x1 = 0.1008 | 820.63 | 1.329
303.15 K, x1 = 0.2044 | 843.53 | 1.087
303.15 K, x1 = 0.3161 | 865.57 | 0.93
303.15 K, x1 = 0.4048 | 881.45 | 0.847
303.15 K, x1 = 0.4459 | 888.41 | 0.818
303.15 K, x1 = 0.6 | 912.35 | 0.743
303.15 K, x1 = 0.6892 | 924.91 | 0.715
303.15 K, x1 = 0.792 | 938.39 | 0.697
303.15 K, x1 = 0.8809 | 949.35 | 0.692
303.15 K, x1 = 0.9364 | 955.95 | 0.692
313.15 K, x1 = 0.04668 | 798.89 | 1.214
313.15 K, x1 = 0.1008 | 811.63 | 1.071
313.15 K, x1 = 0.2119 | 835.52 | 0.885
313.15 K, x1 = 0.3075 | 854.04 | 0.783
313.15 K, x1 = 0.4133 | 872.66 | 0.71
313.15 K, x1 = 0.5019 | 886.95 | 0.668
313.15 K, x1 = 0.5998 | 901.56 | 0.637
313.15 K, x1 = 0.6913 | 914.21 | 0.618
313.15 K, x1 = 0.7902 | 926.98 | 0.607
313.15 K, x1 = 0.8456 | 933.82 | 0.608
313.15 K, x1 = 0.8699 | 936.73 | 0.606
313.15 K, x1 = 0.8903 | 939.21 | 0.607
313.15 K, x1 = 0.9488 | 946.12 | 0.61

CCOC(=O)OCC [diethyl carbonate] + CCO
[1]
Settings | excess molar enthalpy [kJ/mol]
x1 = 0.06432 | 0.395
x1 = 0.1113 | 0.637
x1 = 0.1833 | 0.944
x1 = 0.2439 | 1.15
x1 = 0.3034 | 1.33
x1 = 0.3739 | 1.49
x1 = 0.4258 | 1.58
x1 = 0.5066 | 1.65
x1 = 0.5445 | 1.65
x1 = 0.64 | 1.63
x1 = 0.7134 | 1.53
x1 = 0.7663 | 1.4
x1 = 0.8243 | 1.19
x1 = 0.8998 | 0.79
x1 = 0.9557 | 0.396

[2]
Settings | mass density [kg/m3] | viscosity [mPa·s]
288.15 K, x1 = 0.05544 | 813.88 | 1.181
288.15 K, x1 = 0.1 | 828.53 | 1.111
288.15 K, x1 = 0.197 | 856.33 | 0.996
288.15 K, x1 = 0.2998 | 881.02 | 0.917
288.15 K, x1 = 0.4062 | 902.55 | 0.864
288.15 K, x1 = 0.5039 | 919.48 | 0.838
288.15 K, x1 = 0.613 | 935.91 | 0.821
288.15 K, x1 = 0.6939 | 946.73 | 0.815
288.15 K, x1 = 0.7942 | 958.83 | 0.819
288.15 K, x1 = 0.8992 | 970.29 | 0.834
288.15 K, x1 = 0.9744 | 977.89 | 0.856
293.15 K, x1 = 0.05208 | 808.2 | 1.115
293.15 K, x1 = 0.09645 | 822.76 | 1.045
293.15 K, x1 = 0.1983 | 851.8 | 0.93
293.15 K, x1 = 0.2931 | 874.46 | 0.867
293.15 K, x1 = 0.4089 | 897.78 | 0.818
293.15 K, x1 = 0.4945 | 912.58 | 0.794
293.15 K, x1 = 0.6111 | 930.21 | 0.777
293.15 K, x1 = 0.6787 | 939.26 | 0.771
293.15 K, x1 = 0.7692 | 950.39 | 0.77
293.15 K, x1 = 0.8767 | 962.34 | 0.779
293.15 K, x1 = 0.9444 | 969.33 | 0.791
303.15 K, x1 = 0.04589 | 797.14 | 0.937
303.15 K, x1 = 0.09693 | 813.63 | 0.88
303.15 K, x1 = 0.1943 | 840.98 | 0.799
303.15 K, x1 = 0.2843 | 862.32 | 0.747
303.15 K, x1 = 0.4098 | 887.33 | 0.703
303.15 K, x1 = 0.5128 | 904.7 | 0.686
303.15 K, x1 = 0.6176 | 920.01 | 0.678
303.15 K, x1 = 0.6907 | 929.62 | 0.675
303.15 K, x1 = 0.7896 | 941.46 | 0.675
303.15 K, x1 = 0.8863 | 951.96 | 0.681
303.15 K, x1 = 0.9676 | 960.23 | 0.694
313.15 K, x1 = 0.04956 | 789.32 | 0.761
313.15 K, x1 = 0.09649 | 804.16 | 0.715
313.15 K, x1 = 0.207 | 834.28 | 0.647
313.15 K, x1 = 0.2847 | 852.21 | 0.618
313.15 K, x1 = 0.3982 | 874.66 | 0.591
313.15 K, x1 = 0.5049 | 892.56 | 0.578
313.15 K, x1 = 0.6079 | 907.66 | 0.574
313.15 K, x1 = 0.6227 | 909.67 | 0.573
313.15 K, x1 = 0.6895 | 918.3 | 0.575
313.15 K, x1 = 0.7826 | 929.4 | 0.58
313.15 K, x1 = 0.8924 | 941.3 | 0.594
313.15 K, x1 = 0.9563 | 947.79 | 0.606
